Assay: Relative solubility by turbidity threshold concentration in aqueous buffers (pH 1.5, 4.5, 6.8, 7.4)
Format: physicochemical
Settings: for turbidity threshold (L, M, H) 1.4: pH 1.4 [sic] (method: SGF pH 1.5); for turbidity threshold (L, M, H) 4.5: pH 4.5 (SIF); for turbidity threshold (L, M, H) 6.8: pH 6.8 (SIF); for turbidity threshold (L, M, H) 7.4: pH 7.4 (HEPES)
Experimental: As an indication of relative solubility, the turbidity of compounds in aqueous solutions is assessed. To assess possible compound properties in different physiological compartments, such as stomach, intestine, and blood, a series of aqueous buffers with varying pH is used. Thus each compound is diluted into four different physiologically relevant buffers and solution turbidity is measured by spectrophotometry.
Compounds are dissolved at a concentration of 25 mM in dimethyl sulfoxide, then serially diluted 1:1 into a 96 well plate, diluting 10 times in pure dimethyl sulfoxide, with the final well of each row a dimethyl sulfoxide blank. In an assay plate, 99 μL of appropriate buffer is added to each well, and 1 μL of each sample dilution is added to the buffer, achieving a range of final total concentrations in aqueous solutions having different pH. The buffers used are Simulated Gastric Fluid (SGF-pH 1.5) 0.5M NaCl, pH 1.5; Simulated Intestinal fluid (SIF-pH 4.5 and pH 6.8) 0.05M NaH2PO4, pH 4.5 and 6.8; and Hepes Buffer (HEPES-pH 7.4) 10 mM HEPES, 150 mM NaCl, pH 7.4. Control compounds pyrene, estriol and propranolol HCl are also assessed. Plates are spun and then mixed for 1 minute, and the absorbance is read using a Tecan Safire II to read wavelengths in the visible range (490, 535, and 650 nm) at four locations per well, reflecting the degree of turbidity present. The average optical density for each wavelength in each well is graphed vs. compound concentration, and the concentration at which the curve crosses a threshold O.D. of 0.01 for each wavelength is reported as the endpoint turbidity assay result. The average of the three wavelengths is used to compare turbidity of compounds. Compounds are considered to have low solubility if the threshold concentration is <31.3 μM, moderate solubility if the threshold concentration is 31.3 μM to 250 μM, and high solubility if the threshold concentration is >250 μm.
The following table indicates the relative solubility (L=low, M=moderate, H=high) based on turbidity threshold concentration at each pH for exemplary compounds according to the invention as indicated: […]

Compound | turbidity threshold (L, M, H) 1.4 | turbidity threshold (L, M, H) 4.5 | turbidity threshold (L, M, H) 6.8 | turbidity threshold (L, M, H) 7.4
CCCS(=O)(=O)Nc1ccc(F)c(C(=O)c2c[nH]c3ncnc(Nc4cccc(F)c4)c23)c1F [P-1094, Propane-1-sulfonic acid {2,4-difluoro-3-[4-(3-fluoro-phenylamino)-7H-pyrrolo[2,3-d]pyrimidine-5-carbonyl]-phenyl}-amide] | L (low solubility if the threshold concentration is <31.3 μM) | L (low solubility if the threshold concentration is <31.3 μM) | M (moderate solubility if the threshold concentration is 31.3 μM to 250 μM) | L (low solubility if the threshold concentration is <31.3 μM)
CCCS(=O)(=O)Nc1ccc(F)c(C(=O)c2c[nH]c3ncnc(NC(C)C)c23)c1F [P-1051, Propane-1-sulfonic acid [2,4-difluoro-3-(4-isopropylamino-7H-pyrrolo[2,3-d]pyrimidine-5-carbonyl)-phenyl]-amide] | H (high solubility if the threshold concentration is >250 μm) | M (moderate solubility if the threshold concentration is 31.3 μM to 250 μM) | M (moderate solubility if the threshold concentration is 31.3 μM to 250 μM) | M (moderate solubility if the threshold concentration is 31.3 μM to 250 μM)
CCCS(=O)(=O)Nc1ccc(F)c(C(=O)c2c[nH]c3ncnc(NC4CC4)c23)c1F [P-1041, Propane-1-sulfonic acid [3-(4-cyclopropylamino-7H-pyrrolo[2,3-d]pyrimidine-5-carbonyl)-2,4-difluoro-phenyl]-amide] | H (high solubility if the threshold concentration is >250 μm) | M (moderate solubility if the threshold concentration is 31.3 μM to 250 μM) | M (moderate solubility if the threshold concentration is 31.3 μM to 250 μM) | M (moderate solubility if the threshold concentration is 31.3 μM to 250 μM)
CCCS(=O)(=O)Nc1ccc(F)c(C(=O)c2c[nH]c3ncnc(NCC(C)C)c23)c1F [P-1088, Propane-1-sulfonic acid [2,4-difluoro-3-(4-isobutylamino-7H-pyrrolo[2,3-d]pyrimidine-5-carbonyl)-phenyl]-amide] | M (moderate solubility if the threshold concentration is 31.3 μM to 250 μM) | L (low solubility if the threshold concentration is <31.3 μM) | L (low solubility if the threshold concentration is <31.3 μM) | L (low solubility if the threshold concentration is <31.3 μM)
CCCS(=O)(=O)Nc1ccc(F)c(C(=O)c2c[nH]c3ncnc(Nc4ccc(Cl)cc4)c23)c1F [P-1087, Propane-1-sulfonic acid {3-[4-(4-chloro-phenylamino)-7H-pyrrolo[2,3-d]pyrimidine-5-carbonyl]-2,4-difluoro-phenyl}-amide] | M (moderate solubility if the threshold concentration is 31.3 μM to 250 μM) | L (low solubility if the threshold concentration is <31.3 μM) | M (moderate solubility if the threshold concentration is 31.3 μM to 250 μM) | M (moderate solubility if the threshold concentration is 31.3 μM to 250 μM)
CCCS(=O)(=O)Nc1ccc(F)c(C(=O)c2c[nH]c3ncnc(CC(C)C)c23)c1F [P-1014, Propane-1-sulfonic acid [2,4-difluoro-3-(4-isobutyl-7H-pyrrolo[2,3-d]pyrimidine-5-carbonyl)-phenyl]-amide] | M (moderate solubility if the threshold concentration is 31.3 μM to 250 μM) |  | M (moderate solubility if the threshold concentration is 31.3 μM to 250 μM) | M (moderate solubility if the threshold concentration is 31.3 μM to 250 μM)
CCCS(=O)(=O)Nc1ccc(F)c(C(=O)c2c[nH]c3ncnc(Nc4cccc(Cl)c4)c23)c1F [P-1084, Propane-1-sulfonic acid {3-[4-(3-chloro-phenylamino)-7H-pyrrolo[2,3-d]pyrimidine-5-carbonyl]-2,4-difluoro-phenyl}-amide] | M (moderate solubility if the threshold concentration is 31.3 μM to 250 μM) | M (moderate solubility if the threshold concentration is 31.3 μM to 250 μM) | M (moderate solubility if the threshold concentration is 31.3 μM to 250 μM) | M (moderate solubility if the threshold concentration is 31.3 μM to 250 μM)
CCCS(=O)(=O)Nc1ccc(F)c(C(=O)c2c[nH]c3ncnc(Nc4cnn(CC)c4)c23)c1F [P-1099, Propane-1-sulfonic acid {3-[4-(1-ethyl-1H-pyrazol-4-ylamino)-7H-pyrrolo[2,3-d]pyrimidine-5-carbonyl]-2,4-difluoro-phenyl}-amide] | M (moderate solubility if the threshold concentration is 31.3 μM to 250 μM) | L (low solubility if the threshold concentration is <31.3 μM) | M (moderate solubility if the threshold concentration is 31.3 μM to 250 μM) | M (moderate solubility if the threshold concentration is 31.3 μM to 250 μM)
CCCS(=O)(=O)Nc1ccc(F)c(C(=O)c2c[nH]c3ncnc(NC4CCN(CC)CC4)c23)c1F [P-1095, Propane-1-sulfonic acid {3-[4-(1-ethyl-piperidin-4-ylamino)-7H-pyrrolo[2,3-d]pyrimidine-5-carbonyl]-2,4-difluoro-phenyl}-amide] | H (high solubility if the threshold concentration is >250 μm) | H (high solubility if the threshold concentration is >250 μm) | H (high solubility if the threshold concentration is >250 μm) | H (high solubility if the threshold concentration is >250 μm)
CCCS(=O)(=O)Nc1ccc(F)c(C(=O)c2c[nH]c3ncnc(Nc4ccncc4)c23)c1F [P-1076, Propane-1-sulfonic acid {2,4-difluoro-3-[4-(pyridin-4-ylamino)-7H-pyrrolo[2,3-d]pyrimidine-5-carbonyl]-phenyl}-amide] | H (high solubility if the threshold concentration is >250 μm) | H (high solubility if the threshold concentration is >250 μm) | H (high solubility if the threshold concentration is >250 μm) | H (high solubility if the threshold concentration is >250 μm)
Cc1nn(C)cc1Nc1ncnc2[nH]cc(C(=O)c3c(F)ccc(NS(=O)(=O)c4cc(F)ccc4F)c3F)c12 [P-1143, N-{3-[4-(1,3-Dimethyl-1H-pyrazol-4-ylamino)-7H-pyrrolo[2,3-d]pyrimidine-5-carbonyl]-2,4-difluoro-phenyl}-2,5-difluoro-benzenesulfonamide] | L (low solubility if the threshold concentration is <31.3 μM) | L (low solubility if the threshold concentration is <31.3 μM) | L (low solubility if the threshold concentration is <31.3 μM) | L (low solubility if the threshold concentration is <31.3 μM)
CCCS(=O)(=O)Nc1ccc(F)c(C(=O)c2c[nH]c3ncnc(Nc4cccc(OC)c4)c23)c1F [P-1085, Propane-1-sulfonic acid {2,4-difluoro-3-[4-(3-methoxy-phenylamino)-7H-pyrrolo[2,3-d]pyrimidine-5-carbonyl]-phenyl}-amide] | L (low solubility if the threshold concentration is <31.3 μM) | L (low solubility if the threshold concentration is <31.3 μM) | L (low solubility if the threshold concentration is <31.3 μM) | L (low solubility if the threshold concentration is <31.3 μM)
